Measurements taken from patent US9055743B2, “Alpha, beta-unsaturated imines” (BAYER INTELLECTUAL PROPERTY GMBH, priority 2010, dated 2015).

Legend:
Format in all cases: in vivo
[1] = test system: Ctenocephalides felis; assay: Ctenocephalides felis oral test (CTECFE); settings: 100 ppm in citrated cattle blood, after two days
Method: Ctenocephalides Felis Oral Test (CTECFE)
Solvent: 1 Part by Weight of Dimethyl Sulphoxide
To produce a suitable preparation of active compound, 10 mg of active compound are mixed with 0.5 ml of dimethyl sulphoxide. Part of the concentrate is diluted with citrated cattle blood, and the desired concentration is prepared.
About 20 unfed adult fleas (Ctenocephalides felis) are placed into a chamber which is closed at the top and bottom with gauze. A metal cylinder whose bottom end is closed with parafilm is placed onto the chamber. The cylinder contains the blood/active compound preparation, which can be taken up by the fleas through the parafilm membrane. After two days, the kill in % is determined 100% means that all fleas have been killed; 0% means that none of the fleas have been killed.

[2] = test system: cat fleas (Ctenocephalides felis, fully sensitive laboratory strain); assay: Contact test against fleas in-vitro (CTECFE contact); settings: 500 g/ha, after 48 h
In short: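 Test tubes coated from acetone solutions by rotation, top concentration 500 g/ha (500 μg/dm^2) on tube surface, serial 1:5 dilutions. 10-20 CO2-anesthetized adult fleas held at room temperature for 24 and 48 h. Activity scored versus acetone control: knock-down or death of all fleas = 100%.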

[3] = test system: caterpillars of the army worm (Spodoptera frugiperda); assay: Spodoptera frugiperda test (SPODFR spray treatment); settings: 500 g/ha, spray, after 7 days
In short: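 Activity in % read 7 days after armyworm caterpillars were placed on dried, sprayed Zea mays leaf discs; 0% means none killed. Spray prepared from an acetone/DMF concentrate with emulsifier, diluted with emulsifier-containing water.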

[4] = test system: Boophilus microplus strain Parkhurst, SP-resistant; assay: Boophilus microplus test (DIP); settings: 100 ppm, after 7 days
Method: Boophilus microplus Test (DIP) Test Animals: Adult Fat Females of the Boophilus microplus Strain Parkhurst—SP-Resistant) Solvent: Dimethyl Sulphoxide
10 mg of active compound are dissolved in 0.5 ml of dimethyl sulphoxide. To produce a suitable formulation, the active compound solution is diluted with water to the particular desired concentration.
This active compound preparation is pipetted into tubes. 8-10 ticks are transferred into a further tube provided with holes. The tube is dipped into the active compound preparation, with all the ticks being wetted completely. After the liquid has run off, the ticks are transferred to filter discs in plastic dishes and kept in a climatized room. After 7 days, the activity is checked for deposition of fertile eggs. Eggs whose fertility is not visible from the outside are kept in glass tubes in a climatized cupboard until the larvae have hatched. An activity of 100% means that no tick has laid fertile eggs.

[5] = test system: Boophilus microplus; assay: Boophilus microplus test (BOOPMI injection); settings: 20 μg/animal, injection into the abdomen, after 7 days
Method: Boophilus microplus Test (BOOPMI Injection)
(§1) Solvent: Dimethyl Sulphoxide
To produce a suitable preparation of active compound, 10 mg of active compound are mixed with 0.5 ml of solvent and the concentrate is diluted with solvent to the desired concentration. The solution of active compound is injected into the abdomen (Boophilus microplus), and the animals are transferred into dishes and kept in a climatized room. The activity is assessed by […] of fertile eggs.
After 7 days, the effect in % is determined 100% means that none of the ticks has laid any fertile eggs.

[6] = test system: larvae of the mustard beetle (Phaedon cochleariae); assay: Phaedon test (PHAECO spray treatment); settings: 500 g/ha, spray, after 7 days
In short: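 Mustard beetle larvae were placed on dried Brassica pekinensis leaf discs previously spray-treated with test compound; formulation used acetone and dimethylformamide solvents plus alkylaryl polyglycol ether emulsifier, diluted with emulsifier-containing water.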

[7] = test system: green peach aphid (Myzus persicae); assay: Myzus test (MYZUPE spray treatment); settings: 500 g/ha, spray, after 6 days
In short: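 Activity read as % aphid kill 6 days after treatment (0% = none killed). Compound formulated in acetone and dimethylformamide plus alkylaryl polyglycol ether, diluted in water and sprayed onto infested Brassica pekinensis leaf discs.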

[8] = test system: Musca domestica; assay: Musca domestica test (MUSCDO); settings: 100 ppm, after 2 days
Method: Musca domestica Test (MUSCDO)
as §1
(§2) To produce a suitable preparation of active compound, 10 mg of active compound are mixed with 0.5 ml of dimethyl sulphoxide and the concentrate is diluted with water to the desired concentration. Vessels containing a sponge treated with the active compound preparation of the desired concentration are populated with adult Musca domestica.
After 2 days, the kill in % is determined 100% means that all flies have been killed; 0% means that none of the flies have been killed.

[9] = test system: Lucilia cuprina larvae; assay: Lucilia cuprina test (LUCICU); settings: 100 ppm, after 2 days
Method: Lucilia cuprina Test (LUCICU)
as §1
as §2, with “horsemeat” for “a sponge”, “about 20 Lucilia cuprina larvae.” for “adult Musca domestica.”
After 2 days, the kill in % is determined. 100% means that all larvae have been killed; 0% means that none of the larvae have been killed.

[10] = test system: greenhouse red spider mite (Tetranychus urticae); assay: Tetranychus test; OP-resistant (TETRUR spray treatment); settings: 500 g/ha, spray, after 6 days
In short: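 Activity, as % of mites killed (0–100%), was assessed 6 days after spraying. The spray was compound formulated with acetone, DMF and emulsifier, then diluted in water. It was applied to Phaseolus vulgaris leaf discs carrying every life stage of an OP-resistant spider mite strain.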

[11] = test system: Anopheles gambiae (homocygus kdr); assay: Anopheles test (ANPHGB surface treatment); settings: for knock-down activity: 100 mg/m^2, two hours after contact, exposition 30 minutes
In short: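 Adult mosquitoes held 30 min on a glazed tile treated with a dried 2 mg/ml acetone solution of compound. Mortality scored at 24 h (100% = all killed), knock-down percentage at 2 h post-contact.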

[12] = test system: Culex quinquefasciatus; assay: whole plant or invertebrate; settings: 100 mg/m^2, two hours after contact, exposition 30 minutes
Method: Culex Test (CULXFA Surface Treatment) Solvent: Acetone
To produce a suitable preparation of active compound, the active compound is dissolved in acetone (2 mg/ml). The active compound preparation is pipetted onto a glazed tile and, after drying, adult mosquitoes of the species Culex quinquefasciatus are placed onto the treated tile. The exposition time is 30 minutes.
Two hours after contact to the treated surface, the knock-down proportion of the test animals in % is determined.
24 hours after contact to the treated surface, the mortality in % is determined. Here, 100% means that all mosquitoes have been killed; 0% means that none of the mosquitoes has been killed.

[13] = test system: Aedes aegypti; assay: Aedes test (AEDSAE surface treatment); settings: for knock-down activity: 100 mg/m^2, two hours after contact, exposition 30 minutes
In short: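 Adults were held 30 minutes on glazed tiles carrying a dried acetone deposit of compound (2 mg/ml solution). Readouts: percent knock-down 2 h after contact, percent mortality 24 h after contact, where 0% means no mosquitoes killed.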

Row | Compound | activity (kill in %) [1] [%] | activity against cat fleas [2] [%] | activity (caterpillars killed) [3] [%] | activity (100% = no tick has laid fertile eggs) [4] [%] | activity (100% = none of the ticks has laid any fertile eggs) [5] [%] | activity (beetle larvae killed) [6] [%] | activity (aphids killed) [7] [%] | activity (kill in %) [8] [%] | activity (kill in %) [9] [%] | activity (spider mites killed) [10] [%] | knock-down activity [11] [%] | knock-down activity [12] [%] | knock-down activity [13] [%] | pest or weed control at 500 g/ha ([10]; Tetranychus urticae, 144 h, read-out: activity (spider mites killed)) [%] | mortality at 100 mg/m2 ([11]; Anopheles gambiae, read-out: activity (mortality in %)) [%] | pest or weed control at 500 g/ha ([3]; Spodoptera frugiperda, 168 h, read-out: activity (caterpillars killed)) [%] | pest or weed control at 500 g/ha ([6]; Phaedon cochleariae, 168 h, read-out: activity (beetle larvae killed)) [%] | pest or weed control at 500 g/ha ([7]; Myzus persicae, 144 h, read-out: activity (aphids killed)) [%] | mortality at 100 mg/m2 ([13]; Aedes aegypti, read-out: activity (mortality in %)) [%]
1 | Cc1ccc(N=C2C(=CSc3ccc(F)cc3)CCc3cc(F)cc(F)c32)cc1 (mixture of isomers) [Example 1-33] | 95 | 100 | 100 | 100 | 100 | 100 | 80 | 80 | 100 | – | – | – | – | – | – | – | – | – | –
2 | Cc1ccc(N=C2C(=CSc3ccc(F)cc3)CCc3cc(C)ccc32)cc1 [Example 1-46] | – | 100 | 100 | – | – | 100 | 100 | – | – | 100 | 100 | 100 | 100 | – | – | – | – | – | –
3 | Cc1ccc(N=C2C(=CSc3ccc(F)cc3)CCc3sccc32)cc1 (mixture of isomers) [Example 1-26] | 95 | 100 | 100 | 100 | 100 | 100 | 100 | 100 | 100 | 100 | – | – | – | – | – | – | – | – | –
4 | Cc1ccc(N=C2C(=CSc3ccc(F)cc3)CCc3c(F)cccc32)cc1 (mixture of isomers) [Example 1-34] | 100 | 100 | 100 | 80 | 100 | 100 | – | – | 100 | – | 100 | – | 100 | – | – | – | – | – | –
5 | CCC1C(=CSc2ccc(F)cc2)C(=Nc2ccc(C)cc2)c2ccccc21 (mixture of isomers) [Example 1-37] | 100 | 100 | 100 | – | 100 | 100 | 100 | 90 | 100 | 100 | – | – | – | – | – | – | – | – | –
6 | COc1ccc(N=C2C(=CSc3ccccc3)CCc3ccccc32)cc1 [Example 1-10] | 80 | 100 | 100 | – | 100 | 100 | – | 100 | 90 | 100 | 95 | – | – | – | – | – | – | – | –
7 | Cc1ccc(N=C2C(=CSc3ccccc3)C(C)c3ccccc32)cc1 (mixture of isomers) [Example 1-5] | 100 | 100 | 100 | 100 | 100 | 100 | 100 | 100 | 100 | 100 | 100 | – | – | – | – | – | – | – | –
8 | Cc1ccc(N=C2C(=CSc3ccc(F)cc3)C(C)c3cccc(F)c32)cc1 (mixture of isomers) [Example 1-27] | 100 | 100 | 100 | 100 | 100 | 100 | 100 | 100 | 100 | 100 | 100 | – | 100 | – | – | – | – | – | –
9 | Cc1ccc(N=C2/C(=C/Sc3ccccc3)CCc3ccccc32)cc1 [Example 1-1] | 80 | 100 | – | 100 | 100 | – | – | – | 100 | – | 100 | – | 100 | 100 | 100 | 100 | 100 | 100 | 100
10 | Cc1ccc(N=C2C(=CSc3ccc(F)cc3)CCc3occc32)cc1 [Example 1-29] | 80 | 100 | 100 | 100 | – | 100 | 100 | 100 | 100 | 100 | – | – | 90 | – | – | – | – | – | –
11 | Cc1ccc(N=C2C(=CSc3ccc(F)cc3)COc3cc(F)ccc32)cc1 [Example 1-58] | – | 100 | 100 | – | – | 100 | 100 | – | – | 100 | 100 | 100 | 100 | – | – | – | – | – | –
